The record followed here is patent publication US9428506B2, “Substituted pyrido[3′,4′:4,5]pyrrolo[1,2,3-de]quinoxalines for the treatment of nervous system disorders” (INTRA-CELLULAR THERAPIES, INC., priority 2012, dated 2016).

One assay has as its target 5-HT2A (Homo sapiens, UniProt P28223). Nature of the assay: Receptor binding activity, 5-HT2A. The note with it: binding to 5-HT2A, methods of WO/2009/145900. The protocol:
(§1) Binding to 5HT2A, D2 and SERT is assessed, using the methods described in WO/2009/145900. The compounds of Examples 1 and 2 are found to have potent binding to 5-HT2A, SERT and D2, with affinity constants in the sub-micromolar range: […]

In a further assay the target is D2 (Homo sapiens, UniProt P14416). Nature of the assay: Receptor binding activity, D2. Conditions: binding to D2, methods of WO/2009/145900. The protocol: as §1
Another assay has as its target SERT (Homo sapiens, UniProt P31645). Nature of the assay: Receptor binding activity, SERT. Conditions: binding to SERT, methods of WO/2009/145900. The protocol:
as §1

Each structure is given as a SMILES string.

D2, sequence (P14416 whole entry): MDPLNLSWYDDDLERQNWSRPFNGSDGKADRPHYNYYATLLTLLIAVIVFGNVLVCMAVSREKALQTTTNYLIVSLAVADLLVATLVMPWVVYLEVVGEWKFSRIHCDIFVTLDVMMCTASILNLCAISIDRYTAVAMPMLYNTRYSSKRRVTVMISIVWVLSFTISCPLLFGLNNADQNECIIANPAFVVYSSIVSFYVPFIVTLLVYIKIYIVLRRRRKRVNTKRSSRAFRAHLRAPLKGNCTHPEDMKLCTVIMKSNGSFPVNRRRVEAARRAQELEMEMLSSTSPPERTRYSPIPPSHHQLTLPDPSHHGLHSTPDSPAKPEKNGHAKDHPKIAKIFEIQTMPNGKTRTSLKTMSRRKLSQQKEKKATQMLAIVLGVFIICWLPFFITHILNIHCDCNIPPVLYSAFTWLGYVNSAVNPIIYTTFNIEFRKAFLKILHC
5-HT2A, sequence (P28223 whole entry, species assumed): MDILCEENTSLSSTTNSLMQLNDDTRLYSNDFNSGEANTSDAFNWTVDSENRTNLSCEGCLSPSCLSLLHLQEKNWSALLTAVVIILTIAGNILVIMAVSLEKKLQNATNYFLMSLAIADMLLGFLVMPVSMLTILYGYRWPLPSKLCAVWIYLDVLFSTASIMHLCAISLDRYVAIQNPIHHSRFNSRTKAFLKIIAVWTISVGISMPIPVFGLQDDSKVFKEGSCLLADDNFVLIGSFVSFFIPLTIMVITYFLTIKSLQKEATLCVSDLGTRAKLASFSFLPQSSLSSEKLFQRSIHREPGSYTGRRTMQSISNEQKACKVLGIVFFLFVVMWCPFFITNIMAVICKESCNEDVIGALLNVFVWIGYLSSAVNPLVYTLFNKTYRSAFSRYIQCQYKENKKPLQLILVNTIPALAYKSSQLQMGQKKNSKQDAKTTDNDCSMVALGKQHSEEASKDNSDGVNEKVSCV
SERT, sequence (P31645 whole entry, species assumed): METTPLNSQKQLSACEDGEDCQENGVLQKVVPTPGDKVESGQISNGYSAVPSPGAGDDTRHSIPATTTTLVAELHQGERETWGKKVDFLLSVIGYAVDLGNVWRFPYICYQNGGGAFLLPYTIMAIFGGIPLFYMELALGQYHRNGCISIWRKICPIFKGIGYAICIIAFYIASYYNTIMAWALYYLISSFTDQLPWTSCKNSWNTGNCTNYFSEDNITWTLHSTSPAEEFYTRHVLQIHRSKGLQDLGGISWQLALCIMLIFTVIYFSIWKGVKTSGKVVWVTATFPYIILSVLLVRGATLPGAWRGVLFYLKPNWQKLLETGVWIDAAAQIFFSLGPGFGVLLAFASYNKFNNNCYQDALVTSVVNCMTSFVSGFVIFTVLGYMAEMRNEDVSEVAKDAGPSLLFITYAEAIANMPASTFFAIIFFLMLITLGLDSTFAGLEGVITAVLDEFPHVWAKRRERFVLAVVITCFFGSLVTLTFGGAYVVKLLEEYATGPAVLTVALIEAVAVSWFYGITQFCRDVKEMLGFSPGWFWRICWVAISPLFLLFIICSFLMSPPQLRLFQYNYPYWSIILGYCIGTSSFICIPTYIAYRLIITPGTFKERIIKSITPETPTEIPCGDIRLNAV

With `CN1CCN2c3c(cccc31)[C@@H]1CN(CCCC(C)(O)c3ccc(F)cc3)CC[C@@H]12` (stereo partly drawn) [Ex. 1, 2-(4-Fluoro-phenyl)-5-((6bR,10aS)-3-methyl-2,3,6b,9,10,10a-hexahydro-1H,7H-pyrido[3′,4′:4,5]pyrrolo[1,2,3-de]quinoxalin-8-yl)-pentan-2-ol], the Ki was 350 nM at 5-HT2A, 740 nM at D2 and 520 nM at SERT.

As for `COC(CCCN1CC[C@H]2[C@@H](C1)c1cccc3c1N2CCN3C)c1ccc(F)cc1` (stereo partly drawn) [Ex. 2, (6bR,10aS)-8-[4-(4-Fluoro-phenyl)-4-methoxy-butyl]-3-methyl-2,3,6b,7,8,9,10,10a-octahydro-1H-pyrido[3′,4′:4,5]pyrrolo[1,2,3-de]quinoxaline], the Ki was determined as 96 nM at 5-HT2A, 810 nM on D2 and 300 nM at SERT.

In general, Ki refers to the equilibrium dissociation constant of an inhibitor or competing ligand from its target. Lower therefore signals a stronger hold on the target.
